# Reference: patent US20090312280A1
# Columns and labels:
# HT29 (Colon) = experiment: cell survival / MTT combination cytotoxicity; assay type: cell-based, human; details: HT29; IC50 cytotoxic agent alone / IC50 combination; Compound 1 at 8x EC50 (360 nM)
# Colo205 (Colon) = experiment: cell survival / MTT combination cytotoxicity; assay type: cell-based, human; details: Colo205; IC50 cytotoxic agent alone / IC50 combination; Compound 1 at 8x EC50 (360 nM)
# PC-3 (Prostate) = experiment: cell survival / MTT combination cytotoxicity; assay type: cell-based, human; details: PC-3; IC50 cytotoxic agent alone / IC50 combination; Compound 1 at 8x EC50 (360 nM)
# K562 (Leukemia) = experiment: cell survival / MTT combination cytotoxicity; assay type: cell-based, human; details: IC50 cytotoxic agent alone / IC50 combination, Compound 1 at 4x EC50 (180 nM)
# MDA-MB-231 (Breast) = experiment: cell survival / MTT combination cytotoxicity; assay type: cell-based, human; details: IC50 cytotoxic agent alone / IC50 combination, Compound 1 at 8x EC50 (360 nM)
# [1] = system: Colo205 human colon carcinoma xenografts; experiment: in vivo chemopotentiation, Colo205 xenograft; set-up: species or system mice
# Protocol: Experiments 1 to 39 were conducted in mice xenografts. Experiments 40-42 were conducted in rat xenografts. Specifically, irinotecan combination studies were conducted in HT29 and Colo205. Gemcitabine combination studies were conducted in Colo205. Docetaxel combination studies were conducted in Colo205.
# Gemcitabine and irinotecan are DNA directed cytotoxics known to induce checkpoint activation and subsequent S/G2M-phase arrest. […] Docetaxel is an antimitotics where recent discoveries describe a novel function for CHK1 in the mitotic checkpoint.
# [2] = Exp 18, docetaxel 30 mg/kg, Compound 1 30 mg/kg as printed, IP Q1w×3
# [3] = Exp 19, docetaxel 30 mg/kg + Compound 1 7.5 mg/kg, IP simultaneously Q1w×3
# [4] = Exp 20, docetaxel 30 mg/kg + Compound 1 15 mg/kg, IP simultaneously Q1w×3
# [5] = Exp 21, docetaxel 30 mg/kg + Compound 1 30 mg/kg, IP simultaneously Q1w×3
# [6] = Exp 22, docetaxel 15 mg/kg, Compound 1 15 mg/kg as printed, IP Q1w×3
# [7] = Exp 23, docetaxel 15 mg/kg + Compound 1 15 mg/kg, IP simultaneously Q1w×3
# [8] = Exp 24, docetaxel 15 mg/kg + Compound 1 30 mg/kg, IP simultaneously Q1w×3
# [9] = Exp 25, docetaxel 15 mg/kg Q1w×3 + Compound 1 60 mg/kg, IP simultaneously, Compound 1 two cycles, total 120 mg/kg
structure (smiles),measurement,setting,value
CCc1c2c(nc3ccc(O)cc13)-c1cc3c(c(=O)n1C2)COC(=O)[C@]3(O)CC [SN-38],PF50 (Potentiation Factor50),HT29 (Colon),3.7
same,PF50 (Potentiation Factor50),Colo205 (Colon),2.1
same,PF50 (Potentiation Factor50),PC-3 (Prostate),1.3
same,PF50 (Potentiation Factor50),K562 (Leukemia),1.9
same,PF50 (Potentiation Factor50),MDA-MB-231 (Breast),2.4
CC(=O)O[C@@]12CO[C@@H]1C[C@H](O)[C@@]1(C)C(=O)[C@H](O)C3=C(C)[C@@H](OC(=O)[C@H](O)[C@@H](NC(=O)OC(C)(C)C)c4ccccc4)C[C@@](O)([C@@H](OC(=O)c4ccccc4)[C@H]21)C3(C)C [Docetaxel],% TGI,[1]; [2],85%
same,Growth delay,[1]; [2],54 days
same,% TGI,[1]; [3],90%
same,% poten TGI,[1]; [3],35%
same,Growth delay,[1]; [3],53 days
same,% TGI,[1]; [4],93%
same,% TTP,[1]; [4],36%
same,% poten TGI,[1]; [4],57%
same,Growth delay,[1]; [4],68 days
same,% TGI,[1]; [5],103%
same,% TTP,[1]; [5],50%
same,% poten TGI,[1]; [5],122%
same,Growth delay,[1]; [5],74 days
same,% TGI,[1]; [6],49%
same,Growth delay,[1]; [6],4.75 days
same,% TGI,[1]; [7],65%
same,% TTP,[1]; [7],72%
same,% poten TGI,[1]; [7],31%
same,Growth delay,[1]; [7],19.75 days
same,% TGI,[1]; [8],79%
same,% TTP,[1]; [8],177%
same,% poten TGI,[1]; [8],59%
same,Growth delay,[1]; [8],41.5 days
same,% TGI,[1]; [9],99%
same,% TTP,[1]; [9],145%
same,% poten TGI,[1]; [9],99%
same,Growth delay,[1]; [9],35 days
COc1cccc2c1C(=O)c1c(O)c3c(c(O)c1C2=O)C[C@@](O)(C(=O)CO)C[C@@H]3O[C@H]1C[C@H](N)[C@H](O)[C@H](C)O1 [Doxorubicin],PF50 (Potentiation Factor50),HT29 (Colon),2.2
same,PF50 (Potentiation Factor50),Colo205 (Colon),1.1
same,PF50 (Potentiation Factor50),PC-3 (Prostate),1.5
same,PF50 (Potentiation Factor50),K562 (Leukemia),1.1
same,PF50 (Potentiation Factor50),MDA-MB-231 (Breast),2.25
